Results from patent publication US20080132477A1, “Macrocyclic Compounds Useful as Bace Inhibitors” (priority 2005, published 2008).
Where two headings read alike, the source gives them in different places. Values belong to the compound of their own block, whether it stands above or below them.

Key:
[1] = rcm bond, DCM, 40.0 °C
Human BACE = biological target: T1, Human BACE (Homo sapiens, UniProt P56817); assay: Test 1: Inhibition of Human BACE; type: biochemical; settings: test not given; follows Tests 1-4, assumed BACE
T1 construct: Recombinant BACE (extracellular domain, expressed in baculovirus and purified using standard methods); made in house
T1 sequence (P56817 46-457 limits assumed): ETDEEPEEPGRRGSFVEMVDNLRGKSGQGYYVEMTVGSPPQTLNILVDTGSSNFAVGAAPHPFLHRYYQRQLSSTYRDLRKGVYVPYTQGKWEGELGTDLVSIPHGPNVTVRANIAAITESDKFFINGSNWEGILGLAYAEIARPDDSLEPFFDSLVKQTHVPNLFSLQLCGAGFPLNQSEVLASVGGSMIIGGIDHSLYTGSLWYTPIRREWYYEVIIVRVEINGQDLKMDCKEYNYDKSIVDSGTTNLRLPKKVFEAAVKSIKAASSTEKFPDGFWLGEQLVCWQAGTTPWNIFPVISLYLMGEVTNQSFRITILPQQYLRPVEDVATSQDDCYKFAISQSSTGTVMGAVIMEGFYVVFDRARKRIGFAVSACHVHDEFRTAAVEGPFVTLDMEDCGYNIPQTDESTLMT
Method: Test 1: Inhibition of Human BACE
Recombinant BACE (extracellular domain, expressed in baculovirus and purified using standard methods) at 6 nM concentration is incubated with the test compound at various concentrations for 1 hour at room temperature in 100 mM acetate buffer, pH 4.5, containing 0.1% CHAPS. Synthetic peptide substrate Mca-Ser-Glu-Val-Asn-Leu-Asp-Ala-Glu-Phe-Lys(DNP) is added to a final concentration of 3 μM and the increase in fluorescence is recorded at excitation of 325 nm and emission at 400 nm in a microplate spectro-fluorimeter for 20 minutes in 1-minute intervals. IC50 values are calculated from percentage of inhibition of BACE-activity as a function of the test compound concentration.

Compound: COc1ccc2cc1CC=CCN(C(C)=O)c1cc(cc(Cl)n1)C(=O)N[C@H]([C@H]1CN(Cc3cccc(C(C)C)c3)C(=O)O1)C2
ring closure, yield of all isomers ([1]; from C=CCc1cc(C[C@H](NC(=O)c2cc(Cl)nc(N(CC=C)C(C)=O)c2)[C@H]2CN(Cc3cccc(C(C)C)c3)C(=O)O2)ccc1OC, Grubbs II (tricyclohexylphosphine[1,3-bis(2,4,6-trimethylphenyl)-4,5-dihydroimidazol-2-ylidene][benzylidene]ruthenium(IV) dichloride), 3.45 mM, 6.0 h): 77.6%

IC50 (Human BACE): 40 nM
Compound: Cc1cc2cc(n1)NCCCCc1cccc(c1)C[C@@H]([C@H](O)CNCc1cccc(C(C)C)c1)NC2=O [Example 11, (S)-4-[(R)-1-Hydroxy-2-(3-isopropyl-benzylamino)-ethyl]-18-methyl-3,15,17-triaza-tricyclo[14.3.1.1*6,10*]henicosa-1(19),6,8,10(21),16(20),17-hexaen-2-one]

Compound: CN(C)C(=O)c1cc2cc(c1)C(=O)N[C@H]([C@H](O)CCl)Cc1cccc(c1)OCC=CCO2
ring closure, yield of all isomers ([1]; from C=CCOc1cccc(C[C@H](NC(=O)c2cc(OCC=C)cc(C(=O)N(C)C)c2)[C@H](O)CCl)c1, Grubbs II, 18.9 mM, 1.5 h): 70%
